The results in this text go back to BindingDB's records for doi:10.1111/j.1747-0285.2010.01010.x (University of Washington, 2010).

The term IC50 denotes the concentration that gives 50% inhibition. Low values mean greater potency in that assay, high ones weaker potency in that assay. One may read the Kd as the concentration at which binding is half-saturated.

The assay concerns the target Thymidylate synthase (Homo sapiens, UniProt P04818). The assay can be described thus: Tritium Release Assay. The note with it: pH 7.5; 4 °C.

Chain of Thymidylate synthase (P04818 whole entry): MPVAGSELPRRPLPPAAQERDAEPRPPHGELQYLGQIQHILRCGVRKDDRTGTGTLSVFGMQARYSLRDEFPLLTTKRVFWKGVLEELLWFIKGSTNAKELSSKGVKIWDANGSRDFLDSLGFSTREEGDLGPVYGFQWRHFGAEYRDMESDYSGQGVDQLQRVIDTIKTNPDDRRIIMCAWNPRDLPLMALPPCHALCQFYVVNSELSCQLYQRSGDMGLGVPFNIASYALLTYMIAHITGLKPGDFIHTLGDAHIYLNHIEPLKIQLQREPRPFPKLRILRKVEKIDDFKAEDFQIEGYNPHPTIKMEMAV

`CCN1C(=O)c2cccc3c(NC(=O)c4cccs4)ccc1c23` [MV1554] displayed a half-maximal inhibitory concentration (IC50) of 160 µM.

The compound `Cc1c(C(=O)NCCc2cccs2)nnn1-c1ccccc1` [MV1555] had an IC50 of 30 µM and a Kd of 5000 nM.

`O=C(O)c1ccc(/N=C/c2ccc(-c3cccs3)s2)cc1` [MV1556] gave an IC50 of 240 µM.

Turning to `CC(=NNC(=O)Cc1c(C)[nH]c2ccc(C)cc12)c1cccs1` [MV1561], 160 µM corresponded to half-maximal inhibition (IC50).

On to `CCc1ccc(/C=N/NC(=O)c2c[nH]c3ccccc23)s1` [MV1565], for which the IC50 turned out to be 70 µM and binding was characterised by a dissociation constant (Kd) of 1000 nM.

`O=C(NCCc1c[nH]c2ccccc12)/C(=C\c1cccs1)NC(=O)c1cccs1` [MV1570] returned an IC50 of 70 µM and a Kd of 2000 nM.

`CC(OC(=O)c1cc2occc2n1C)C(=O)NCc1cccs1` (stereo not given) [MV1574]: the IC50 is more than 500 µM.

With `CCOC(=O)c1cc2occc2n1CC(=O)N1CCc2ccccc21` [MV1576], the concentration for half-maximal inhibition (IC50) worked out at 140 µM.

In the case of `CCOC(=O)c1cc2oc(C)cc2n1CC#N` [MV1578], the half-inhibitory concentration (IC50) is more than 500 µM.

`Cc1onc(-c2ccccc2)c1C(=O)NCc1cccs1` [MV1581] yielded a half-inhibitory concentration (IC50) of more than 500 µM.

Consider `O=C(NCc1cccs1)c1nc(-c2ccccc2)no1` [MV1586], for which the IC50 was determined as 115 µM.

In the case of `Cc1cc(C(=O)CSc2nnc(N)s2)c(C)n1Cc1ccco1` [MV1588], the IC50 came to 115 µM.
